Counter-ions that a name gives are not always drawn. Like-named read-outs stand apart in the source and are kept apart here.
System: Ixodes ricinus
Assay: Oral acaricidal test on ticks in membrane feeding wells with treated blood
Type: in vivo
Conditions: for mortality at 1 ppm / mortality at 10 ppm / mortality at 100 ppm: Ixodes ricinus, po
Procedure: A laboratory study was conducted to determine the oral acaricidal properties of three compounds according to the invention (SN0305, SN0306 and SN0307) against Ixodes ricinus. Each compound was tested at 1, 10 and 100 ppm, and compared to a negative control corresponding to solvent alone (0.1% DMSO). Amitraz at 100 ppm was used as a positive control.
The Ixodes ricinus ticks (nymphs and adults) were placed for 24 hours on a membrane in feeding wells containing blood mixed with the tested compounds. Tick mortality (number of dead, moribund, or unaffected ticks in each well), attachment to the membrane (number of ticks attached/detached in each well), and the behavior (presence or absence of twitches) were examined 1, 3, 6, 12, 24, 48, 72, and 96 hours after the onset of tick exposure to the compounds.
Ticks (Ixodes ricinus) were collected. Collected adult females were kept separate from the nymphs and both were placed in sterile tubes in a humidity chamber to provide ˜80% humidity and 17° C. Only healthy ticks (females/nymphs) were chosen for the experiment.
Batches of 12 adults or nymphs were inserted into the feeding wells. After about 24 hours, their attachment was examined with a brush.
The efficiency of three compounds (SN0305, SN0306 and SN0307), each tested at three concentrations (1, 10, 100 ppm), was compared to the solvent control (0.1% DMSO, Sigma-Aldrich D-5879; Lot 101K0028) and to the positive control (Amitraze at 100 ppm).
Silicone-coated membranes with a thickness comprised between 110 and 140 μm were used for the construction of the feeding units.
Feeding units (sterilized acrylic glass tubes) were placed in feeding wells made of sterilized six-well plates.
3.1 ml of sterile 10^−3 M ATP-enriched blood was applied to each feeding well. Feeding wells were then inserted into a heated water bath (FIG. 12) and maintained at 37° C.±2° C.
Stock solutions of 100,000 ppm were prepared and tenth dilutions were carried out in 0.1% DMSO to reach the desired concentrations. After tick attachment (24 hours after placing the ticks in the feeding wells), 3.1 μl of the solutions were added to each feeding well containing 3.1 ml of blood. Blood was changed after 12 hours with fresh supplementation of the compounds to be tested. The ticks were exposed to the product for a total of 24 hours, after which the blood was again changed to fresh, untreated blood.
Tick mortality (number of dead, moribund or unaffected ticks in each well), attachment (number of attached/detached ticks in each well) and behavior (presence, absence and intensity of convulsions) were examined 1, 3, 6, 12, 24, 48, 72, and 96 hours after the start of tick exposure to the compound.

[1] = adult ticks, 1 h, read-out: average percentage of adult tick mortality (moribund or dead adult ticks)
[2] = adult ticks, 3 h, read-out: average percentage of adult tick mortality (moribund or dead adult ticks)
[3] = adult ticks, 6 h, read-out: average percentage of adult tick mortality (moribund or dead adult ticks)
[4] = adult ticks, 12 h, read-out: average percentage of adult tick mortality (moribund or dead adult ticks)
[5] = adult ticks, 24 h, read-out: average percentage of adult tick mortality (moribund or dead adult ticks)
[6] = adult ticks, 48 h, read-out: average percentage of adult tick mortality (moribund or dead adult ticks)
[7] = adult ticks, 72 h, read-out: average percentage of adult tick mortality (moribund or dead adult ticks)
[8] = adult ticks, 96 h, read-out: average percentage of adult tick mortality (moribund or dead adult ticks)
[9] = nymphs, 1 h, read-out: average percentage of mortality of tick nymphs (moribund or dead nymphs)
[10] = nymphs, 3 h, read-out: average percentage of mortality of tick nymphs (moribund or dead nymphs)
[11] = nymphs, 6 h, read-out: average percentage of mortality of tick nymphs (moribund or dead nymphs)
[12] = nymphs, 12 h, read-out: average percentage of mortality of tick nymphs (moribund or dead nymphs)
[13] = nymphs, 24 h, read-out: average percentage of mortality of tick nymphs (moribund or dead nymphs)
[14] = nymphs, 48 h, read-out: average percentage of mortality of tick nymphs (moribund or dead nymphs)
[15] = nymphs, 72 h, read-out: average percentage of mortality of tick nymphs (moribund or dead nymphs)
[16] = nymphs, 96 h, read-out: average percentage of mortality of tick nymphs (moribund or dead nymphs)

In the case of `Cc1cccc(Cc2cnc[nH]2)c1C` [Detomidine hydrochloride, 4-[(2,3-dimethylphenyl)-methyl]-3H-imidazole], the “effect in terms of tick detachment (in words)” value (1, 10, 100 ppm, nymphs and adults) was “very limited effect”, the “detached adults in a replica” value (1 ppm, adult ticks) was 2 and the mortality at 1 ppm (adult ticks, 1 ppm, 1 h, read-out: average percentage of adult tick mortality (moribund or dead adult ticks)) was 0%. It also gave a mortality at 1 ppm (adult ticks, 1 ppm, 3 h, read-out: average percentage of adult tick mortality (moribund or dead adult ticks)) of 0%, a mortality at 1 ppm (adult ticks, 1 ppm, 6 h, read-out: average percentage of adult tick mortality (moribund or dead adult ticks)) of 2.8% and a mortality at 1 ppm (adult ticks, 1 ppm, 12 h, read-out: average percentage of adult tick mortality (moribund or dead adult ticks)) of 2.8%. For the same compound, the mortality at 1 ppm (adult ticks, 1 ppm, 24 h, read-out: average percentage of adult tick mortality (moribund or dead adult ticks)) was 62.9%, the mortality at 1 ppm (adult ticks, 1 ppm, 48 h, read-out: average percentage of adult tick mortality (moribund or dead adult ticks)) was 88.2% and the mortality at 1 ppm (adult ticks, 1 ppm, 72 h, read-out: average percentage of adult tick mortality (moribund or dead adult ticks)) was 100%. The mortality at 1 ppm (adult ticks, 1 ppm, 96 h, read-out: average percentage of adult tick mortality (moribund or dead adult ticks)) was 100%, the mortality at 10 ppm [1] was 0% and the mortality at 10 ppm [2] was 0%. For the same compound, the mortality at 10 ppm [3] was 8.3%, the mortality at 10 ppm [4] was 8.3% and the mortality at 10 ppm [5] was 52.1%. The mortality at 10 ppm [6] was 96.4%, the mortality at 10 ppm [7] was 100% and the mortality at 10 ppm [8] was 100%. It also gave a mortality at 100 ppm [1] of 0%, a mortality at 100 ppm [2] of 0% and a mortality at 100 ppm [3] of 8.8%. For the same compound, the mortality at 100 ppm [4] was 15.4%, the mortality at 100 ppm [5] was 24% and the mortality at 100 ppm [6] was 57.4%. It also gave a mortality at 100 ppm [7] of 100%, a mortality at 100 ppm [8] of 100% and a mortality at 1 ppm (nymphs, 1 ppm, 1 h, read-out: average percentage of mortality of tick nymphs (moribund or dead nymphs)) of 0%. The mortality at 1 ppm (nymphs, 1 ppm, 3 h, read-out: average percentage of mortality of tick nymphs (moribund or dead nymphs)) was 0%, the mortality at 1 ppm (nymphs, 1 ppm, 6 h, read-out: average percentage of mortality of tick nymphs (moribund or dead nymphs)) was 14.1% and the mortality at 1 ppm (nymphs, 1 ppm, 12 h, read-out: average percentage of mortality of tick nymphs (moribund or dead nymphs)) was 35.4%. It also gave a mortality at 1 ppm (nymphs, 1 ppm, 24 h, read-out: average percentage of mortality of tick nymphs (moribund or dead nymphs)) of 56.4%, a mortality at 1 ppm (nymphs, 1 ppm, 48 h, read-out: average percentage of mortality of tick nymphs (moribund or dead nymphs)) of 97.2% and a mortality at 1 ppm (nymphs, 1 ppm, 72 h, read-out: average percentage of mortality of tick nymphs (moribund or dead nymphs)) of 100%. The mortality at 1 ppm (nymphs, 1 ppm, 96 h, read-out: average percentage of mortality of tick nymphs (moribund or dead nymphs)) was 100%, the mortality at 10 ppm [9] was 0% and the mortality at 10 ppm [10] was 12.7%. It also gave a mortality at 10 ppm [11] of 35.5%, a mortality at 10 ppm [12] of 54.7% and a mortality at 10 ppm [13] of 88.1%. The mortality at 10 ppm [14] was 100%, the mortality at 10 ppm [15] was 100% and the mortality at 10 ppm [16] was 100%. For the same compound, the mortality at 100 ppm [9] was 0%, the mortality at 100 ppm [10] was 9.4% and the mortality at 100 ppm [11] was 45.3%. The mortality at 100 ppm [12] was 69.5%, the mortality at 100 ppm [13] was 95.5% and the mortality at 100 ppm [14] was 100%. For the same compound, the mortality at 100 ppm [15] was 100%, the mortality at 100 ppm [16] was 100% and the “ticks affected (convulsion, morbidity or death of ticks)” value (from 1 hour of exposure, regardless of the concentration tested (1, 10, 100 ppm)) was 100%.

Source: patent US12501899B2, “Mite infestation treatment” (priority 2019, dated 2025)
